# Assay results reported in patent US11654169B2, “Methods for protecting skin and/or promoting wound healing” (SINPHAR PHARMACEUTICAL CO., LTD., priority 2016, dated 2023).
# Key:
# Format in all cases: cell-based
# [1] = tested on: normal primary human skin fibroblastic cells; experiment: Intracellular content of collagen in fibroblasts (Western blot and ELISA), relative to control; settings: 48 hours; for relative intracellular content of collagen: control group = 100%; for intracellular contents of collagen as compared to the control group (in words): treated cells vs control group
# Protocol: (§1) The normal primary human skin fibroblastic cells (purchased from ATCC) were cultivated in a Fibroblast Growth Medium. The cells thus provided were used in the following experiments. […]
# (§2) The normal primary human skin fibroblastic cells provided by [Preparation Example C] were divided into 37 groups and were respectively cultivated with the following medium for 48 hours: • 1. Group 1: a Fibroblast Growth Medium • 2. Group 2-1 to 2-3: Fibroblast Growth Media containing the pachymic acid (PA) provided by [Preparation Example B] at a concentration of 0.01, 0.1 and 1 μM, respectively; • 3. Group 3-1 to 3-3: Fibroblast Growth Media containing the dehydropachymic acid (DPA) provided by [Preparation Example B] at a concentration of 0.01, 0.1 and 1 μM, respectively; • 4. Group 4-1 to 4-3: Fibroblast Growth Media containing the tumulosic acid (TA) provided by [Preparation Example B] at a concentration of 0.01, 0.1 and 1 μM, respectively; • 5. Group 5-1 to 5-3: Fibroblast Growth Media containing the dehydrotumulosic acid (DTA) provided by [Preparation Example B] at a concentration of 0.01, 0.1 and 1 μM, respectively; • 6. Group 6-1 to 6-3: Fibroblast Growth Media containing the polyporenic acid C (PAC) provided by [Preparation Example B] at a concentration of 0.01, 0.1 and 1 μM, respectively; • 7. Group 7-1 to 7-3: Fibroblast Growth Media containing the 3-epi-dehydrotumulosic acid (EDTA) provided by [Preparation Example B] at a concentration of 0.01, 0.1 and 1 μM, respectively; • 8. Group 8-1 to 8-3: Fibroblast Growth Media containing the dehydrotrametenolic acid (DTTA) provided by [Preparation Example B] at a concentration of 0.01, 0.1 and 1 μM, respectively; • 9. Group 9-1 to 9-3: Fibroblast Growth Media containing the trametenolic acid (TTA) provided by [Preparation Example B] at a concentration of 0.01, 0.1 and 1 μM, respectively; • 10. Group 10-1 to 10-3: Fibroblast Growth Media containing the poricoic acid A (PAA) provided by [Preparation Example B] at a concentration of 0.01, 0.1 and 1 μM, respectively; • 11. Group 11-1 to 11-3: Fibroblast Growth Media containing the dehydroeburicoic acid (DEA) provided by [Preparation Example B] at a concentration of 0.01, 0.1 and 1 μM, respectively; • 12. Group 12-1 to 12-3: Fibroblast Growth Media containing the poricoic acid B (PAB) provided by [Preparation Example B] at a concentration of 0.01, 0.1 and 1 μM, respectively; • 13. Group 13-1 to 13-3: Fibroblast Growth Media containing the eburicoic acid (EA) provided by [Preparation Example B] at a concentration of 0.01, 0.1 and 1 μM, respectively.
# Thereafter, the cell medium of each group was collected and concentrated. Then, the intracellular content of collagen was measured and analyzed by Western blot and enzyme-linked immunosorbent assay (ELISA).
# [2] = tested on: normal primary human skin fibroblastic cells; experiment: Content of collagen in cell medium (extracellular collagen) of fibroblasts (Western blot and ELISA), relative to control; settings: 48 hours; for relative content of collagen in the medium (extracellular content of collagen): control group = 100%; for extracellular contents of collagen (collagen in cell medium) as compared to the control group (in words): treated cells vs control group
# Protocol: The normal primary human skin fibroblastic cells (purchased from ATCC) were cultivated in a Fibroblast Growth Medium. The cells thus provided were used in the following experiments.
# The normal primary human skin fibroblastic cells provided by [Preparation Example C] were divided into 4 groups and were respectively cultivated with the following medium for 48 hours: • 1. Group I: a Fibroblast Growth Medium; • 2.
# (§3) Thereafter, the cell medium of each group was collected and concentrated. Then, the intracellular content of collagen, the content of collagen in cell medium (i.e., extracellular content of collagen) and the content of hyaluronic acid in cell medium were measured and analyzed by Western blot and enzyme-linked immunosorbent assay (ELISA).
# as §2
# The content of collagen in the medium of each group (i.e., extracellular content of collagen) was provided.
# [3] = tested on: normal primary human skin fibroblastic cells; experiment: Content of hyaluronic acid in cell medium of fibroblasts (Western blot and ELISA), relative to control; settings: 48 hours; for relative content of hyaluronic acid in the medium (extracellular content of hyaluronic acid): control group = 100%
# Protocol: as §1, §3, §2
# The content of hyaluronic acid in the medium of each group (i.e., extracellular content of hyaluronic acid) was provided.
Compound,relative intracellular content of collagen ([1]; 0.01 μM),relative intracellular content of collagen ([1]; 0.1 μM),relative intracellular content of collagen ([1]; 1 μM),intracellular contents of collagen as compared to the control group (in words) [1],relative content of collagen in the medium (extracellular content of collagen) ([2]; 0.01 μM),relative content of collagen in the medium (extracellular content of collagen) ([2]; 0.1 μM),relative content of collagen in the medium (extracellular content of collagen) ([2]; 1 μM),extracellular contents of collagen (collagen in cell medium) as compared to the control group (in words) [2],relative content of hyaluronic acid in the medium (extracellular content of hyaluronic acid) ([3]; 0.01 μM),relative content of hyaluronic acid in the medium (extracellular content of hyaluronic acid) ([3]; 0.1 μM),relative content of hyaluronic acid in the medium (extracellular content of hyaluronic acid) ([3]; 1 μM),contents of hyaluronic acid as compared to the control group (in words) ([3]; treated cells vs control group),"contents of hyaluronic acid, ingredients singled out as stronger (in words) ([3]; treated cells vs control group, compared with the other active ingredients)"
"C=C(CC[C@@H](C(=O)O)[C@H]1[C@H](O)C[C@@]2(C)C3=CC[C@H]4C(C)(C)[C@@H](O)CC[C@]4(C)C3=CC[C@]12C)C(C)C [Dehydrotumulosic acid (DTA), dehydrotumulosic acid]",159%,156%,127%,significantly enhanced,122%,105%,139%,significantly enhanced,112%,134%,168%,significantly enhanced,enhanced more significantly
"C=C(CC[C@@H](C(=O)O)[C@H]1CC[C@@]2(C)C3=CC[C@H]4C(C)(C)[C@@H](O)CC[C@]4(C)C3=CC[C@]12C)C(C)C [Dehydroeburicoic acid (DEA), dehydroeburicoic acid]",94%,80%,77%,,143%,148%,185%,significantly enhanced,115%,118%,128%,significantly enhanced,
"C=C(C)[C@@H]1CC=C2C(=CC[C@]3(C)[C@@H]([C@@H](CCC=C(C)C)C(=O)O)[C@H](O)C[C@@]23C)[C@@]1(C)CCC(=O)O [Poricoic acid B (PAB), poricoic acid B]",105%,108%,99%,,122%,136%,153%,significantly enhanced,109%,104%,84%,significantly enhanced,
"C=C(CC[C@@H](C(=O)O)[C@H]1[C@H](O)C[C@@]2(C)C3=CC[C@H]4C(C)(C)C(=O)CC[C@]4(C)C3=CC[C@]12C)C(C)C [Polyporenic acid C (PAC), polyporenic acid C]",162%,182%,200%,significantly enhanced,134%,162%,153%,significantly enhanced,93%,113%,98%,significantly enhanced,
